According to patent US20240150377A1, “MODULATORS OF CYSTIC FIBROSIS TRANSMEMBRANE CONDUCTANCE REGULATOR” (VERTEX PHARMACEUTICALS INCORPORATED, priority 2020, published 2024):
Like-named read-outs stand apart in the source and are kept apart here.

Molecular target: CFTR (Homo sapiens, UniProt P13569)
Assay: Membrane potential dye, Enteroid Assay A
Format: cell-based
Conditions: for Ent. A Max Activity: chloride transport as % of triple combination control (Enteroid Assay A); for EC50: human enteroid cells, 18-24 hours, acute 10 μM forskolin and 300 nM ivacaftor, read-out: Ent. A EC50
Procedure, shortened: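 % Activity: chloride transport relative to a 3 μM/3 μM corrector pair plus 300 nM acute potentiator control. Primary human enteroid cells, 18-24 h compound exposure at 37 °C; membrane potential dye (methyl oxonol) fluorescence over 15 min after forskolin (10 μM)/IBMX (100 μM)/Compound III (300 nM) stimulation in chloride-free buffer.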

CFTR, sequence (P13569 with tags, fused parts or gaps DEL508-508): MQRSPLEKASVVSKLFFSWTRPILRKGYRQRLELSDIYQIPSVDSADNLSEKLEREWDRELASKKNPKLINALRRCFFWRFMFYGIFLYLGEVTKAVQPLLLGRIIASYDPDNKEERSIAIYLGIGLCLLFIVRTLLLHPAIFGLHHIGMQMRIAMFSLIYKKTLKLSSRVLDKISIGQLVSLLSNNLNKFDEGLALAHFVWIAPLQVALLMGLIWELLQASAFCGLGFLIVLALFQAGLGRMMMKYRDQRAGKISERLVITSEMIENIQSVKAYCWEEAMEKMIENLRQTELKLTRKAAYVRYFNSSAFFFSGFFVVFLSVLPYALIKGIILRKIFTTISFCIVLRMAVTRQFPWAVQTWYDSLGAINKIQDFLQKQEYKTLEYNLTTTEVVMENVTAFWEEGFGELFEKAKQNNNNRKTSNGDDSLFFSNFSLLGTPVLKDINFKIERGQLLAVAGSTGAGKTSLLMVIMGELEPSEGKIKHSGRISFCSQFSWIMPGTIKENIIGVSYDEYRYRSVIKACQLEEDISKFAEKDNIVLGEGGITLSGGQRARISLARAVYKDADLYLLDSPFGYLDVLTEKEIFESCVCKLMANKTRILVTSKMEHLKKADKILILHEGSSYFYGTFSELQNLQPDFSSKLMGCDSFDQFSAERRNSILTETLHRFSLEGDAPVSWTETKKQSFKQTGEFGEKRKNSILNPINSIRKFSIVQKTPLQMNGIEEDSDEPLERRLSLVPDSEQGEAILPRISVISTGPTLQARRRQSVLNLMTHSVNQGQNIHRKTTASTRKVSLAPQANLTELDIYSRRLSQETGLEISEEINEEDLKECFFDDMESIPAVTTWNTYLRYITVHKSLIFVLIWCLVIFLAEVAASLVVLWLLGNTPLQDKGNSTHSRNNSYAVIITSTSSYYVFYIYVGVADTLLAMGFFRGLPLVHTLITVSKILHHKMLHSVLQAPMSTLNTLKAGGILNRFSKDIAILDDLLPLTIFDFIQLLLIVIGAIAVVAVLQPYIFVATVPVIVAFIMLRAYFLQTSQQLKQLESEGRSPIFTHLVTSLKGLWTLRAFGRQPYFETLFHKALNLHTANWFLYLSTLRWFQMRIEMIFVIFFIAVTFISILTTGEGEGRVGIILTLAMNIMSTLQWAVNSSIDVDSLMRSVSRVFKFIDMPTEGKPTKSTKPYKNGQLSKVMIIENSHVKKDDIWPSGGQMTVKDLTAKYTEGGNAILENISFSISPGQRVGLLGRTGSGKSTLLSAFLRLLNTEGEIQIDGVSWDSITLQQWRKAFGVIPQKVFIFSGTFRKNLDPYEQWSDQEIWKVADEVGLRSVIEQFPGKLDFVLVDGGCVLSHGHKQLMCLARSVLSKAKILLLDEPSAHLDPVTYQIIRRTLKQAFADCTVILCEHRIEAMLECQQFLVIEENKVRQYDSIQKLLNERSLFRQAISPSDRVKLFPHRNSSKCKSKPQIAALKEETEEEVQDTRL

SMILES | Ent. A Max Activity (Table 6) | EC50 (Table 6) | Ent. A Max Activity (Table 7) | EC50 (Table 7)
Cc1cccc(C)c1-c1cc2nc(n1)NS(=O)(=O)c1cccc(c1)C(=O)N(Cc1ccccn1)CCCO2 [Compound 5, 6-(2,6-Dimethylphenyl)-2,2-dioxo-13-(2-pyridylmethyl)-9-oxa-2λ^6-thia-3,5,13,20-tetrazatricyclo[13.3.1.14,8]icosa-1(19),4(20),5,7,15,17-hexaen-14-one] | +++ (+++ is >60%) | 1000 to 3000 nM | – | –
CCCC(=O)N1Cc2cccc(c2)S(=O)(=O)Nc2nc(cc(-c3c(C)cccc3C)n2)OC[C@H]1CC(C)C [Compound 1052] | – | – | ++ (++ is 30-60%) | –
Cc1cccc(C)c1-c1cc2nc(n1)NS(=O)(=O)c1cccc(c1)C(=O)N(Cc1ccn(C)n1)[C@H](CC(C)C)CO2 [Compound 855] | +++ (+++ is >60%) | < 1000 nM | – | –
Cc1cccc(C)c1-c1cc2nc(n1)NS(=O)(=O)c1cccc(c1)C(=O)N(CCC1CCOCC1)[C@H](CCC1(C(F)(F)F)CC1)CO2 (single isomer, unassigned) [Compound 73, 6-(2,6-dimethylphenyl)-2,2-dioxo-12-(2-tetrahydropyran-4-ylethyl)-11-[2-[1-(trifluoromethyl)cyclopropyl]ethyl]-9-oxa-2λ^6-thia-3,5,12,19-tetrazatricyclo[12.3.1.14,8]nonadeca-1(18),4(19),5,7,14,16-hexaen-13-one] | + (+ is <30%) | – | – | –
Cc1cccc(C)c1-c1cc2nc(n1)NS(=O)(=O)c1cccc(c1)CN(Cc1ccc(Oc3ccccc3)cc1)[C@H](CC(C)C)CO2 [Compound 1030] | – | – | ++ (++ is 30-60%) | < 1000 nM
Cc1cccc(C)c1-c1cc2nc(n1)NS(=O)(=O)c1cccc(c1)C(=O)N(C)C[C@H](CNCCC(C)(C)C)O2 [Compound 1017] | + (+ is <30%) | – | – | –
COC(=O)c1ccc(CN2C(=O)c3cccc(c3)S(=O)(=O)Nc3nc(cc(-c4c(C)cccc4C)n3)OC[C@H]2CC(C)C)cn1 [Compound 95, Methyl 5-{[(11R)-6-(2,6-Dimethylphenyl)-11-(2-methylpropyl)-2,2,13-trioxo-9-oxa-2λ^6-thia-3,5,12,19-tetraazatricyclo[12.3.1.14,8]nonadeca-1(18),4(19),5,7,14,16-hexaen-12-yl]methyl}pyridine-2-carboxylate] | – | – | +++ (+++ is >60%) | < 1000 nM
COc1ccc(CN2C(=O)c3cccc(c3)S(=O)(=O)Nc3nc(cc(-c4c(C)cccc4C)n3)OC[C@H]2CC(C)C)cn1 [Compound 422] | +++ (+++ is >60%) | < 1000 nM | – | –
Cc1cccc(C)c1-c1cc2nc(n1)NS(=O)(=O)c1cccc(c1)C(=O)N(C[C@H]1CCOC(C)(C)C1)[C@H](CC(C)C)CO2 [Compound 428] | +++ (+++ is >60%) | < 1000 nM | – | –
Cc1cccc(C)c1-c1cc2nc(n1)NS(=O)(=O)c1cccc(c1)C(=O)N(C)CC(c1ccccc1)O2 (stereo not drawn) [Compound 677] | +++ (+++ is >60%) | < 1000 nM | – | –
Cc1cccc(C)c1-c1cc2nc(n1)NS(=O)(=O)c1cccc(c1)C(=O)N(Cc1ccc(C(=O)O)nc1)[C@H](CC(C)C)CO2 [Compound 94, 5-{[(11R)-6-(2,6-dimethylphenyl)-11-(2-methylpropyl)-2,2,13-trioxo-9-oxa-2λ^6-thia-3,5,12,19-tetraazatricyclo[12.3.1.14,8]nonadeca-1(18),4(19),5,7,14,16-hexaen-12-yl]methyl}pyridine-2-carboxylic acid] | – | – | +++ (+++ is >60%) | 1000 to 3000 nM
Cc1cccc(C)c1-c1cc2nc(n1)NS(=O)(=O)c1cccc(c1)C(=O)N(C[C@@H](O)CO)[C@H](CC(C)C)CO2 [Compound 38, (11R)-12-[(2R)-2,3-Dihydroxypropyl]-6-(2,6-dimethylphenyl)-11-(2-methylpropyl)-9-oxa-2λ^6-thia-3,5,12,19-tetraazatricyclo[12.3.1.14,8]nonadeca-1(17),4(19),5,7,14(18),15-hexaene-2,2,13-trione] | +++ (+++ is >60%) | < 1000 nM | – | –
Cc1cccc(C)c1-c1cc2nc(n1)NS(=O)(=O)c1cccc(c1)C(=O)N(Cc1ccc(N3CCC(C)(O)CC3)nc1)[C@H](CC(C)C)CO2 [Compound 939] | – | – | +++ (+++ is >60%) | < 1000 nM
Cc1cccc(C)c1-c1cc2nc(n1)NS(=O)(=O)c1cccc(c1)C(=O)N(C)CC(c1ccc(-c3ccccc3)cn1)O2 (stereo not drawn) [Compound 513] | +++ (+++ is >60%) | 1000 to 3000 nM | – | –
Cc1cccc(C)c1-c1cc2nc(n1)NS(=O)(=O)c1cccc(c1)C(=O)N(CCCn1cccn1)[C@H](CC(C)C)CO2 [Compound 354] | +++ (+++ is >60%) | < 1000 nM | – | –
CC(=O)N1CCC2(CC1)CC(CN1C(=O)c3cccc(c3)S(=O)(=O)Nc3nc(cc(-c4c(C)cccc4C)n3)OC[C@H]1CC(C)C)C2 [Compound 90, (11R)-12-[(7-Acetyl-7-azaspiro[3.5]nonan-2-yl)methyl]-6-(2,6-dimethylphenyl)-11-isobutyl-2,2-dioxo-9-oxa-2λ^6-thia-3,5,12,19-tetrazatricyclo[12.3.1.14,8]nonadeca-1(18),4(19),5,7,14,16-hexaen-13-one] | – | – | +++ (+++ is >60%) | < 1000 nM

SMILES | Ent. A Max Activity (Table 6) | EC50 (Table 6) | Ent. A Max Activity (Table 7) | EC50 (Table 7)
Cc1cccc(C)c1-c1cc2nc(n1)NS(=O)(=O)c1cccc(c1)C(=O)N(Cc1cccn(C)c1=O)[C@H](CC(C)C)CO2 [Compound 417] | – | – | +++ (+++ is >60%) | < 1000 nM
Cc1cccc(C)c1-c1cc2nc(n1)NS(=O)(=O)c1cccc(c1)C(=O)N(Cc1ccc(C(C)(C)C)cc1)[C@H](CC(C)C)CO2 [Compound 425] | +++ (+++ is >60%) | < 1000 nM | – | –
COc1ccnc(CN2C(=O)c3cccc(c3)S(=O)(=O)Nc3nc(cc(-c4c(C)cccc4C)n3)OC[C@H]2CC(C)C)c1 [Compound 82, (11R)-6-(2,6-Dimethylphenyl)-11-isobutyl-12-[(4-methoxy-2-pyridyl)methyl]-2,2-dioxo-9-oxa-2λ^6-thia-3,5,12,19-tetrazatricyclo[12.3.1.14,8]nonadeca-1(18),4(19),5,7,14,16-hexaen-13-one] | +++ (+++ is >60%) | < 1000 nM | – | –
Cc1cccc(C)c1-c1cc2nc(n1)NS(=O)(=O)c1cccc(c1)C(=O)N(CCc1ccccc1)[C@H](CC(C)C)CO2 [Compound 355] | +++ (+++ is >60%) | < 1000 nM | – | –
COCC1CCN(c2ccc(CN3C(=O)c4cccc(c4)S(=O)(=O)Nc4nc(cc(-c5c(C)cccc5C)n4)OC[C@H]3CC(C)C)cn2)CC1 [Compound 970] | – | – | ++ (++ is 30-60%) | < 1000 nM
CC(=O)N1Cc2cccc(c2)S(=O)(=O)Nc2nc(cc(-c3c(C)cccc3C)n2)OC[C@H]1CC(C)C [Compound 1025] | – | – | + (+ is <30%) | –
Cc1cccc(C)c1-c1cc2nc(n1)NS(=O)(=O)c1cccc(c1)C(=O)N(CC1CCOC1)[C@H](CC(C)C)CO2 (stereo partly drawn) [Compound 357] | +++ (+++ is >60%) | < 1000 nM | – | –
Cc1cccc(C)c1-c1cc2nc(n1)NS(=O)(=O)c1cccc(c1)C(=O)N(CCC1CCOCC1)[C@H](CC(F)(F)F)CO2 [Compound 982] | – | – | ++ (++ is 30-60%) | 1000 to 3000 nM
Cc1cccc(C)c1-c1cc2nc(n1)NS(=O)(=O)c1cccc(c1)C(=O)N(Cc1ccc(N3CC[C@@H](O)C3)nc1)[C@H](CC(C)C)CO2 [Compound 955] | – | – | +++ (+++ is >60%) | < 1000 nM
COc1cccc(CN2C(=O)c3cccc(c3)S(=O)(=O)Nc3nc(cc(-c4c(C)cccc4C)n3)OC[C@H]2CC(C)C)c1 [Compound 348] | +++ (+++ is >60%) | < 1000 nM | – | –
Cc1cccc(C)c1-c1cc2nc(n1)NS(=O)(=O)c1cccc(c1)C(=O)N(C)CC(c1ccc(-c3ccc(C(C)(C)C)cc3)cn1)O2 (stereo not drawn) [Compound 511] | +++ (+++ is >60%) | < 1000 nM | – | –
Cc1ccccc1-c1cc2nc(n1)NS(=O)(=O)c1cccc(c1)C(=O)N(C)[C@H](CC(C)C)[C@H](c1ccc(C(C)(C)C)cn1)O2 [Compound 343] | +++ (+++ is >60%) | < 1000 nM | – | –
COCCOCCN1C(=O)c2cccc(c2)S(=O)(=O)Nc2nc(cc(-c3c(C)cccc3C)n2)OC[C@H]1CC(C)C [Compound 424] | +++ (+++ is >60%) | < 1000 nM | – | –
Cc1cccc(C)c1-c1cc2nc(n1)NS(=O)(=O)c1cccc(c1)C(=O)N(Cc1ccc(N3CCN(C)CC3)cc1)[C@H](CC(C)C)CO2 [Compound 856] | +++ (+++ is >60%) | < 1000 nM | – | –
COC(=O)CCCN1C(=O)c2cccc(c2)S(=O)(=O)Nc2nc(cc(-c3c(C)cccc3C)n2)OC[C@H]1CC(C)C [Compound 367] | +++ (+++ is >60%) | < 1000 nM | – | –
Cc1cccc(C)c1-c1cc2nc(n1)NS(=O)(=O)c1cccc(c1)C(=O)N(Cc1ccc(N3CCOCC3)nc1)[C@H](CC(C)C)CO2 [Compound 976] | +++ (+++ is >60%) | < 1000 nM | – | –
